For data set [1] the following is noted: 100 kPa, Liquid; for speed of sound: Frequency=3 MHz, Sing-around technique in a fixed-path interferometer; for mass density: Vibrating tube method.
Data set [2] is described as follows: xn = mol fraction of the nth substance listed. The settings on record: 100 kPa, Liquid, x2 = 0; for speed of sound: Frequency=3 MHz, Sing-around technique in a fixed-path interferometer; for mass density: Vibrating tube method.

The values that follow come from the NIST ThermoML archive (doi:10.1016/j.jct.2014.07.019).

Molecules are shown by their SMILES. ± gives the expanded uncertainty stated by the source.

The term speed of sound denotes how fast a sound wave travels through the sample. What is called mass density is mass per unit of volume. For `CCCCOCC(C)O` (stereo not given) [1-butoxy-2-propanol], the speed of sound in data set [1] (293.15 K) is on record as 1279 ± 1.3 m/s; in data set [1] (298.15 K), 1260.9 ± 1.3 m/s; in data set [1] (303.15 K), 1242.9 ± 1.3 m/s; in data set [1] (308.15 K), 1224.9 ± 1.3 m/s; in data set [1] (313.15 K), 1207 ± 1.3 m/s. For the same compound, the mass density in data set [1] (293.15 K) is given as 879.031 ± 0.15 kg/m3; in data set [1] (298.15 K), 874.632 ± 0.15 kg/m3; in data set [1] (303.15 K), 870.204 ± 0.15 kg/m3; in data set [1] (308.15 K), 865.737 ± 0.15 kg/m3; in data set [1] (313.15 K), 861.241 ± 0.15 kg/m3.

For the compound `CCCCO` [butan-1-ol], the speed of sound in data set [1] (293.15 K) worked out at 1257.5 ± 1.2 m/s; in data set [1] (298.15 K), 1240.6 ± 1.2 m/s; in data set [1] (303.15 K), 1223.7 ± 1.2 m/s; in data set [1] (308.15 K) it was 1207 ± 1.2 m/s; in data set [1] (313.15 K), 1190.5 ± 1.2 m/s. Further, the mass density in data set [1] (293.15 K) is 809.807 ± 0.15 kg/m3; in data set [1] (298.15 K), 805.986 ± 0.15 kg/m3; in data set [1] (303.15 K) it was 802.139 ± 0.15 kg/m3; in data set [1] (308.15 K), 798.261 ± 0.15 kg/m3; in data set [1] (313.15 K), 794.385 ± 0.15 kg/m3.

Take `CCCCO` [butan-1-ol] + CCCCOCC(C)O: the speed of sound in data set [2] (293.15 K) amounted to 1257.5 ± 1.2 m/s; in data set [2] (298.15 K) it was 1240.6 ± 1.2 m/s; in data set [2] (303.15 K), 1223.7 ± 1.2 m/s; in data set [2] (308.15 K), 1207 ± 1.2 m/s; in data set [2] (313.15 K) it was 1190.5 ± 1.2 m/s. For the same compound, the mass density is 809.807 ± 0.15 kg/m3 in data set [2] (293.15 K); 805.986 ± 0.15 kg/m3 in data set [2] (298.15 K); 802.139 ± 0.15 kg/m3 in data set [2] (303.15 K); 798.261 ± 0.15 kg/m3 in data set [2] (308.15 K); 794.385 ± 0.15 kg/m3 in data set [2] (313.15 K).

As for `CCC(C)O` (stereo not given) [butan-2-ol], the speed of sound in data set [1] (293.15 K) amounted to 1230.2 ± 1.3 m/s; in data set [1] (298.15 K), 1213.3 ± 1.3 m/s; in data set [1] (303.15 K) it was 1197.2 ± 1.2 m/s; in data set [1] (308.15 K), 1177 ± 1.2 m/s; in data set [1] (313.15 K), 1158.9 ± 1.2 m/s. For the same compound, the mass density in data set [1] (293.15 K) was 806.679 ± 0.16 kg/m3; in data set [1] (298.15 K), 802.563 ± 0.16 kg/m3; in data set [1] (303.15 K), 798.352 ± 0.16 kg/m3; in data set [1] (308.15 K), 794.058 ± 0.17 kg/m3; in data set [1] (313.15 K) it was 789.668 ± 0.17 kg/m3.

With `CCC(C)O` (stereo not given) [butan-2-ol] + CCCCOCC(C)O, the speed of sound came out at 1230.2 ± 1.3 m/s in data set [2] (293.15 K); 1213.3 ± 1.3 m/s in data set [2] (298.15 K); 1197.2 ± 1.2 m/s in data set [2] (303.15 K); 1177 ± 1.2 m/s in data set [2] (308.15 K); 1158.9 ± 1.2 m/s in data set [2] (313.15 K). The mass density turned out to be 806.679 ± 0.16 kg/m3 in data set [2] (293.15 K); 802.563 ± 0.16 kg/m3 in data set [2] (298.15 K); 798.352 ± 0.16 kg/m3 in data set [2] (303.15 K); 794.058 ± 0.17 kg/m3 in data set [2] (308.15 K); 789.668 ± 0.17 kg/m3 in data set [2] (313.15 K).

As for `CCCO` [propan-1-ol], the speed of sound in data set [1] (293.15 K) is recorded as 1224.2 ± 1.3 m/s; in data set [1] (298.15 K) it was 1207 ± 1.3 m/s; in data set [1] (303.15 K), 1189.8 ± 1.2 m/s; in data set [1] (308.15 K), 1172.8 ± 1.2 m/s; in data set [1] (313.15 K), 1156.2 ± 1.2 m/s. The mass density in data set [1] (293.15 K) is 804.144 ± 0.16 kg/m3; in data set [1] (298.15 K), 800.13 ± 0.16 kg/m3; in data set [1] (303.15 K) it was 796.08 ± 0.16 kg/m3; in data set [1] (308.15 K), 792.001 ± 0.17 kg/m3; in data set [1] (313.15 K) it was 787.884 ± 0.17 kg/m3.

For `CCCO` [propan-1-ol] + CCCCOCC(C)O, the speed of sound in data set [2] (293.15 K) was 1224.2 ± 1.3 m/s; in data set [2] (298.15 K) it was 1207 ± 1.3 m/s; in data set [2] (303.15 K), 1189.8 ± 1.2 m/s; in data set [2] (308.15 K), 1172.8 ± 1.2 m/s; in data set [2] (313.15 K), 1156.2 ± 1.2 m/s. The mass density is 804.144 ± 0.16 kg/m3 in data set [2] (293.15 K); 800.13 ± 0.16 kg/m3 in data set [2] (298.15 K); 796.08 ± 0.16 kg/m3 in data set [2] (303.15 K); 792.001 ± 0.17 kg/m3 in data set [2] (308.15 K); 787.884 ± 0.17 kg/m3 in data set [2] (313.15 K).

As to `CC(C)O` [propan-2-ol], the speed of sound is 1168.5 ± 1.2 m/s in data set [1] (293.15 K); 1148 ± 1.2 m/s in data set [1] (298.15 K); 1132.2 ± 1.2 m/s in data set [1] (303.15 K); 1114.3 ± 1.1 m/s in data set [1] (308.15 K); 1096.2 ± 1.1 m/s in data set [1] (313.15 K). The mass density in data set [1] (293.15 K) came to 785.739 ± 0.15 kg/m3; in data set [1] (298.15 K) it was 781.588 ± 0.15 kg/m3; in data set [1] (303.15 K), 777.468 ± 0.15 kg/m3; in data set [1] (308.15 K), 773.151 ± 0.15 kg/m3; in data set [1] (313.15 K), 768.446 ± 0.15 kg/m3.

Consider `CC(C)O` [propan-2-ol] + CCCCOCC(C)O, for which the speed of sound in data set [2] (293.15 K) is 1168.5 ± 1.2 m/s; in data set [2] (298.15 K), 1148 ± 1.2 m/s; in data set [2] (303.15 K) it was 1132.2 ± 1.2 m/s; in data set [2] (308.15 K), 1114.3 ± 1.1 m/s; in data set [2] (313.15 K), 1096.2 ± 1.1 m/s. Besides, the mass density in data set [2] (293.15 K) was 785.739 ± 0.15 kg/m3; in data set [2] (298.15 K), 781.588 ± 0.15 kg/m3; in data set [2] (303.15 K) it was 777.468 ± 0.15 kg/m3; in data set [2] (308.15 K), 773.151 ± 0.15 kg/m3; in data set [2] (313.15 K), 768.446 ± 0.15 kg/m3.
